How the values were obtained:
[1] = test system: rat model of trauma-hemorrhage and resuscitation; assay: trauma/hemorrhage mimicking the field, Example 2 (glucosamine only during resuscitation); assay type: in vivo
Experimental: (§1) The following experiments were conducted using a model of soft tissue trauma-hemorrhage (T-H) as described in Ba, et al., Crit. Care Med (2000) 28(8):2837-2842; Chaudry, et al., Can J Physiol Pharmacol (1975) 53(5):859-865; Ma, et al., Am J Physiol Gastrointest Liver Physiol (2003) 284(1):G107-G115; and Harkema and Chaudry, Crit. Care Med (1992) 20(2):263-275. Male rats were fasted for 16 h and divided into three groups: (1) sham (trauma only); (2) T-H (trauma with subsequent hemorrhage and resuscitation); and (3) G-T-H (trauma with subsequent hemorrhage and resuscitation in the presence of glucosamine). All groups underwent a 5 cm ventral midline laparotomy to induce soft-tissue trauma and were cannulated in both femoral arteries and the right femoral vein. The T-H and G-T-H groups received an infusion of 3 mls over 30 minutes of Ringer's lactate (RL) containing, in the G-T-H group only, 10 mM glucosamine. These two groups were then bled to a mean arterial pressure of 40 mm Hg within 10 minutes and maintained at that pressure for 80 minutes. The T-H group was then infused with 1 ml RL over 10 minutes, while in the G-T-H group the infusate contained an iso-osmotic solution of 75 mM glucosamine (pH 7.4) in 50% RL. The two groups were then resuscitated with four times the maximum hemorrhage volume over a period of 60 minutes with RL (T-H) or RL containing 10 mM glucosamine (G-T-H). Sham-operated animals underwent the same surgical procedure but were neither bled nor resuscitated. Two hours post-resuscitation, a catheter was inserted into the left ventricle via the right carotid artery. Organ blood flows were determined using radioactive microspheres. Cardiac function and blood parameters were also assessed. The data for these experiments are shown in Tables 1 and 2 (values are mean ±standard error of the mean).
A second experiment was performed in order to mimic a trauma/hemorrhage in the field. There were no treatments in any of the three groups prior to trauma/hemorrhage. The T-H and G-T-H groups were partially resuscitated identically with two times the maximum hemorrhage volume over a period of 30 minutes. In the G-T-H group, a 1 ml bolus containing an iso-osmotic solution of 75 mM glucosamine (pH 7.4) in 50% RL was administered, while in the T-H group this bolus contained only RL. This was then followed with two times the maximum hemorrhage volume over a period of 30 minutes with RL (T-H) or RL containing 10 mM glucosamine (G-T-H). Sham-operated animals underwent the same surgical procedure but were neither bled nor resuscitated. The data for this experiment are shown in Tables 3 and 4 (values are mean ±standard error of the mean).

[2] = test system: rat model of trauma-hemorrhage and resuscitation; assay: soft tissue trauma-hemorrhage (T-H) and resuscitation, Example 1 (glucosamine before hemorrhage and during resuscitation); assay type: in vivo
Experimental: as §1

[3] = rat, G-T-H (n = 8), 2 h after T-H and resuscitation, Example 2, mean ± SEM
[4] = rat, G-T-H (n = 8), 2 h after T-H, glucosamine only during resuscitation, mean ± SEM
[5] = rat, G-T-H (n = 3), 2 h after T-H, glucosamine before hemorrhage and in resuscitation, mean ± SEM
[6] = rat, G-T-H, 2 h after T-H and resuscitation, Example 1, mean ± SEM

N[C@H]1C(O)O[C@H](CO)[C@@H](O)[C@@H]1O (stereo partly drawn) [glucosamine]
protection in trauma/hemorrhage ([1]; glucosamine only during resuscitation, Example 2): remarkably protective | Regional Blood Flow: Brain [1, 3]: 151.58 ± 13.97 ml/min/100 g tissue | Regional Blood Flow: Cardiac [1, 3]: 933.65 ± 114.73 ml/min/100 g tissue | Regional Blood Flow: Cecum [1, 3]: 86.39 ± 10.70 ml/min/100 g tissue | Regional Blood Flow: Gastric [1, 3]: 71.08 ± 6.84 ml/min/100 g tissue | Regional Blood Flow: Hepatic Artery [1, 3]: 45.10 ± 6.58 ml/min/100 g tissue | Regional Blood Flow: Large Intestine [1, 3]: 96.83 ± 6.90 ml/min/100 g tissue | Regional Blood Flow: Lung [1, 3]: 29.71 ± 4.87 ml/min/100 g tissue | Regional Blood Flow: Mesenteric [1, 3]: 43.12 ± 9.56 ml/min/100 g tissue | Regional Blood Flow: Muscle [1, 3]: 32.97 ± 5.00 ml/min/100 g tissue | Regional Blood Flow: Pancreatic [1, 3]: 52.08 ± 5.53 ml/min/100 g tissue | Regional Blood Flow: Portal Vein [1, 3]: 211.57 ± 23.79 ml/min/100 g tissue | Regional Blood Flow: Renal [1, 3]: 472.07 ± 49.40 ml/min/100 g tissue | Regional Blood Flow: Skin [1, 3]: 11.65 ± 1.25 ml/min/100 g tissue | Regional Blood Flow: Small Intestine [1, 3]: 233.60 ± 27.07 ml/min/100 g tissue | Regional Blood Flow: Splenic [1, 3]: 54.77 ± 4.44 ml/min/100 g tissue | Regional Blood Flow: Thymus [1, 3]: 40.70 ± 4.96 ml/min/100 g tissue | Regional Blood Flow: Total Hepatic [1, 3]: 256.67 ± 27.12 ml/min/100 g tissue | +dp/dt [1, 4]: 13656 ± 7786 mm Hg/sec | Cardiac Output [1, 4]: 33.49 ± 2.12 ml/min 100 g body wt | Heart Rate [1, 4]: 394.50 ± 13.13 beat/minute | Mean Arterial Pressure [1, 4]: 97.88 ± 4.19 mm Hg | Oxygen Consumption [1, 4]: 0.93 ± 0.23 ml/min 100 g body wt | Oxygen Delivery [1, 4]: 2.52 ± 0.17 ml/min 100 g body wt | Oxygen Extraction [1, 4]: 34.48 ± 7.45% | Stroke volume [1, 4]: 84.95 ± 4.66 μl/beat/100 g body wt | Total Peripheral Resistance [1, 4]: 3.05 ± 0.31 mm Hg/ml/min/100 g body wt | −dp/dt [1, 4]: 8549 ± 549 mm Hg/sec | Hepatic blood flow, change ([2]; G-T-H group, Example 1): improved | Total peripheral resistance, change ([2]; G-T-H group, Example 1): decreased | +dp/dt relative to the T-H group ([2]; G-T-H vs T-H group, Example 1): markedly improved | Cardiac output improvement over the T-H group ([2]; G-T-H vs T-H group, Example 1): more than two-fold | oxygen consumption relative to the T-H group ([2]; G-T-H vs T-H group, Example 1): more than doubled | oxygen delivery relative to the T-H group ([2]; G-T-H vs T-H group, Example 1): more than doubled | −dp/dt relative to the T-H group ([2]; G-T-H vs T-H group, Example 1): markedly improved | Cardiac output improvement over the sham group ([2]; G-T-H vs sham group, Example 1): more than 50% | +dp/dt [2, 5]: 14,400 ± 900 mm Hg/sec | Cardiac Output [2, 5]: 40.5 ± 0.4 ml/min 100 g body wt | Heart Rate [2, 5]: 371 ± 15 beat/minute | Mean Arterial Pressure [2, 5]: 104 ± 3 mm Hg | Oxygen Consumption [2, 5]: 1.32 ± 0.15 ml/min 100 g body wt | Oxygen Delivery [2, 5]: 3.3 ± 0.1 ml/min 100 g body wt | Oxygen Extraction [2, 5]: 42.0 ± 5.4% | Stroke volume [2, 5]: 109.7 ± 5.7 μl/beat/100 g body wt | Total Peripheral Resistance [2, 5]: 2.58 ± 0.10 mm Hg/ml/min/100 g body wt | −dp/dt [2, 5]: 8,700 ± 600 mm Hg/sec | Regional Blood Flow: Brain [2, 6]: 103 ± 11 ml/min/100 g tissue | Regional Blood Flow: Cardiac [2, 6]: 1,320 ± 170 ml/min/100 g tissue | Regional Blood Flow: Cecum [2, 6]: 118 ± 29 ml/min/100 g tissue | Regional Blood Flow: Gastric [2, 6]: 78.3 ± 5.1 ml/min/100 g tissue | Regional Blood Flow: Hepatic Artery [2, 6]: 18.5 ± 6.0 ml/min/100 g tissue | Regional Blood Flow: Large Intestine [2, 6]: 101 ± 18 ml/min/100 g tissue | Regional Blood Flow: Lung [2, 6]: 74.2 ± 18.1 ml/min/100 g tissue | Regional Blood Flow: Mesenteric [2, 6]: 29.2 ± 5.0 ml/min/100 g tissue | Regional Blood Flow: Muscle [2, 6]: 6.45 ± 1.69 ml/min/100 g tissue | Regional Blood Flow: Pancreatic [2, 6]: 56 ± 4 ml/min/100 g tissue | Regional Blood Flow: Portal Vein [2, 6]: 187 ± 14 ml/min/100 g tissue | Regional Blood Flow: Renal [2, 6]: 374 ± 13 ml/min/100 g tissue | Regional Blood Flow: Skin [2, 6]: 53.9 ± 5.7 ml/min/100 g tissue | Regional Blood Flow: Small Intestine [2, 6]: 240 ± 24 ml/min/100 g tissue | Regional Blood Flow: Splenic [2, 6]: 46 ± 20 ml/min/100 g tissue | Regional Blood Flow: Thymus [2, 6]: 47.8 ± 10.5 ml/min/100 g tissue | Regional Blood Flow: Total Hepatic [2, 6]: 202 ± 20 ml/min/100 g tissue

Reference: patent publication US20080166323A1, “Activators of Hexosamine Biosynthesis as Inhibitors of Injury Induced by Ischemia or Hermorrhagic Shock” (UAB RESEARCH FOUNDATION, priority 2004, published 2008)
